What is called pKi is −log10 of the Ki, conventionally taken in molar units. A higher pKi goes with a small Ki.

SMILES strings stand for the structures. pKi: −log10 of the molar value.

For three compounds, Ki results are on record in US20110046106A1, “ARYL SULFONAMIDES AS EFFECTIVE ANALGESICS” (BOEHRINGER INGELHEIM INTERNATIONAL GMBH, priority 2008, published 2011).

The target of this assay is T1, rat BK1 receptor (Rattus norvegicus, UniProt P97583).
T1 construct: expressed in transfected cells
T1 sequence (P97583 1-337): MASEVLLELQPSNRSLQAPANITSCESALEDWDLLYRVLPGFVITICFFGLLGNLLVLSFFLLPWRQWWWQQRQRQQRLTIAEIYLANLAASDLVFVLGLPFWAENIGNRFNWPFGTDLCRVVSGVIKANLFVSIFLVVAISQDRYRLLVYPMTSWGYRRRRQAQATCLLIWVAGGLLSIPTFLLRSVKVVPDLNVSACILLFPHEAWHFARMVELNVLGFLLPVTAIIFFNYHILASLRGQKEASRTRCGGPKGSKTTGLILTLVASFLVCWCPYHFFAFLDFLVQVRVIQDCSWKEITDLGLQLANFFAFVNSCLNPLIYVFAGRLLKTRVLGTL
The experiment in a line: Bradykinin BK1-receptor binding (radioligand displacement, membranes of CHO cells). Particulars: membranes of CHO cells stably expressing the rat BK1 receptor; 1 to 5 nM [3H]-kallidin (DesArg10, Leu9); 120 minutes at room temperature. Here is the method: Description of the Method of Bradykinin BK1-Receptor Binding
CHO cells stably expressing the rat BK1 receptor are cultivated in Dulbecco's modified medium. The medium from confluent cultures is removed and the cells are washed with PBS buffer, scraped off and isolated by centrifugation. The cells are then homogenized in suspension and the homogenate is centrifuged and resuspended. The protein content is determined and the membrane preparation obtained in this manner is then frozen at −80° C.
After thawing, 200 μl of the homogenate (50 to 100 μg of proteins/assay) are incubated at room temperature with 1 to 5 nM of kallidin (DesArg10, Leu9), [3,4-prolyl-3,43H(N)] and increasing concentrations of the test substance in a total volume of 250 μl for 120 minutes. The incubation is terminated by rapid filtration through GF/B glass fibre filters which had been pretreated with polyethyleneimine (0.3%). The protein-bound radio-activity is measured in a TopCount NXT (Perkin Elmer/Packard). Non-specific binding is defined as radioactivity bound in the presence of 1.0 μM Lys-Des-Arg9-bradykinin. The concentration/binding curve is analysed using a computer-assisted nonlinear curve fitting. The Ki which corresponds to the test substance is determined using the data obtained in this manner.
It is pointed out that the compounds were selected for their different structural elements and not in order to emphasise specific compounds: […]
(Loss of bound radioactivity is the signal in a displacement assay; it reports binding, not function.)
`COc1cc(C)c(S(=O)(=O)N(C)CCOCC(=O)N(C)[C@@H]2CCN(C3CCN(C4CCOCC4)CC3)C2)c(C)c1` [Example 3]: the pKi was 7.61. As for `COc1cc(C)c(S(=O)(=O)N(C)CCOCC(=O)N(C)C[C@@H]2CCN(C(=O)CCN3CCCC3)C2)c(C)c1` [Example 6], the figure is 6.74; as for `COc1cc(C)c(S(=O)(=O)N(C)CCOCC(=O)N(C)[C@@H]2CCN(C3CCN(C4CC4)CC3)C2)c(C)c1` [Example 8], 7.63.
